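1) Cells in 96-well plates. 2) Compound, 48 h, 5 concentrations. 3) Linear interpolation between surrounding doses. 4) Unreached endpoint = highest concentration. Here, GI50 denotes the concentration required for 50% inhibition of growth.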 Active and inactive are the calls of the source. Rule as the data show it: active = GI50 up to about 1.1 µM and inactive = higher.
Legend:
Assay in all cases: NCI anticancer screen, dose series, 48 h
SF-268 = test system: SF-268
Hs-578T = test system: Hs-578T
IGROV-1 = test system: IGROV-1
MDA-MB-231 = test system: MDA-MB-231
NCI-H226 = test system: NCI-H226
KM12 = test system: KM12
SNB-19 = test system: SNB-19
786-0 = test system: 786-0
A549 = test system: A549
MCF7 = test system: MCF7
UACC-62 = test system: UACC-62
SK-MEL-28 = test system: SK-MEL-28
MDA-N = test system: MDA-N
HL-60 = test system: HL-60
SK-MEL-2 = test system: SK-MEL-2
SNB-75 = test system: SNB-75
K562 = test system: K562
DU-145 = test system: DU-145
MOLT-4 = test system: MOLT-4
NCI-H460 = test system: NCI-H460
PC-3 = test system: PC-3
ACHN = test system: ACHN
Malme-3M = test system: Malme-3M
CCRF-CEM = test system: CCRF-CEM
HCT-15 = test system: HCT-15
UACC-257 = test system: UACC-257
BT-549 = test system: BT-549
T47D = test system: T47D
MDA-MB-435 = test system: MDA-MB-435
TK-10 = test system: TK-10
OVCAR-5 = test system: OVCAR-5
NCI-H23 = test system: NCI-H23
HT-29 = test system: HT-29
U-251 = test system: U-251
NCI/ADR-RES = test system: NCI/ADR-RES
SK-OV-3 = test system: SK-OV-3
SK-MEL-5 = test system: SK-MEL-5
COLO 205 = test system: COLO 205
CAKI-1 = test system: CAKI-1
OVCAR-8 = test system: OVCAR-8
SF-295 = test system: SF-295
NCI-H522 = test system: NCI-H522
SW-620 = test system: SW-620
HCT-116 = test system: HCT-116
HCC 2998 = test system: HCC 2998
A498 = test system: A498
UO-31 = test system: UO-31
SN12C = test system: SN12C
SR = test system: SR
HOP-62 = test system: HOP-62
M14 = test system: M14
SF-539 = test system: SF-539
OVCAR-3 = test system: OVCAR-3
LOX IMVI = test system: LOX IMVI
RPMI-8226 = test system: RPMI-8226
OVCAR-4 = test system: OVCAR-4
EKVX = test system: EKVX

**Q.** `CN(C)CCNC(=O)c1cccc(N(C)C(=O)c2ccccc2)c1[N+](=O)[O-]` was tested. Which GI50 (SF-268) did it give?
**A.** > 100 µM (inactive)

**Q.** And the GI50 (Hs-578T)?
**A.** > 100 µM (inactive)

**Q.** And the GI50 (IGROV-1)?
**A.** > 100 µM (inactive)

**Q.** What about the GI50 (MDA-MB-231) of the same compound?
**A.** > 100 µM (inactive)

**Q.** And the GI50 (NCI-H226)?
**A.** > 100 µM (inactive)

**Q.** What about the GI50 (KM12) of the same compound?
**A.** > 100 µM (inactive)

**Q.** What about the GI50 (SNB-19) of the same compound?
**A.** > 100 µM (inactive)

**Q.** What about the GI50 (786-0) of the same compound?
**A.** > 100 µM (inactive)

**Q.** What about the GI50 (A549) of the same compound?
**A.** > 100 µM (inactive)

**Q.** What about the GI50 (MCF7) of the same compound?
**A.** > 100 µM (inactive)

**Q.** What about the GI50 (UACC-62) of the same compound?
**A.** > 100 µM (inactive)

**Q.** What about the GI50 (SK-MEL-28) of the same compound?
**A.** > 100 µM (inactive)

**Q.** What about the GI50 (MDA-N) of the same compound?
**A.** > 100 µM (inactive)

**Q.** And the GI50 (HL-60)?
**A.** > 100 µM (inactive)

**Q.** What about the GI50 (SK-MEL-2) of the same compound?
**A.** > 100 µM (inactive)

**Q.** And the GI50 (SNB-75)?
**A.** 53.6 µM (inactive)

**Q.** What about the GI50 (K562) of the same compound?
**A.** > 100 µM (inactive)

**Q.** And the GI50 (DU-145)?
**A.** > 100 µM (inactive)

**Q.** What about the GI50 (MOLT-4) of the same compound?
**A.** > 100 µM (inactive)

**Q.** And the GI50 (NCI-H460)?
**A.** > 100 µM (inactive)

**Q.** What about the GI50 (PC-3) of the same compound?
**A.** > 100 µM (inactive)

**Q.** What about the GI50 (ACHN) of the same compound?
**A.** > 100 µM (inactive)

**Q.** What about the GI50 (Malme-3M) of the same compound?
**A.** > 100 µM (inactive)

**Q.** What about the GI50 (CCRF-CEM) of the same compound?
**A.** > 100 µM (inactive)

**Q.** What about the GI50 (HCT-15) of the same compound?
**A.** > 100 µM

**Q.** What about the GI50 (UACC-257) of the same compound?
**A.** > 10 µM (inactive)

**Q.** And the GI50 (BT-549)?
**A.** > 100 µM (inactive)

**Q.** What about the GI50 (T47D) of the same compound?
**A.** > 100 µM (inactive)

**Q.** And the GI50 (MDA-MB-435)?
**A.** > 100 µM (inactive)

**Q.** And the GI50 (TK-10)?
**A.** > 100 µM (inactive)

**Q.** And the GI50 (OVCAR-5)?
**A.** > 100 µM (inactive)

**Q.** What about the GI50 (NCI-H23) of the same compound?
**A.** > 100 µM (inactive)

**Q.** And the GI50 (HT-29)?
**A.** > 100 µM (inactive)

**Q.** What about the GI50 (U-251) of the same compound?
**A.** > 100 µM (inactive)

**Q.** And the GI50 (NCI/ADR-RES)?
**A.** > 100 µM (inactive)

**Q.** And the GI50 (SK-OV-3)?
**A.** > 100 µM (inactive)

**Q.** And the GI50 (SK-MEL-5)?
**A.** > 100 µM (inactive)

**Q.** What about the GI50 (COLO 205) of the same compound?
**A.** > 10 µM (inactive)

**Q.** And the GI50 (CAKI-1)?
**A.** > 100 µM (inactive)

**Q.** What about the GI50 (OVCAR-8) of the same compound?
**A.** > 100 µM (inactive)

**Q.** And the GI50 (SF-295)?
**A.** > 100 µM (inactive)

**Q.** And the GI50 (NCI-H522)?
**A.** > 100 µM (inactive)

**Q.** And the GI50 (SW-620)?
**A.** > 100 µM (inactive)

**Q.** What about the GI50 (HCT-116) of the same compound?
**A.** > 100 µM (inactive)

**Q.** What about the GI50 (HCC 2998) of the same compound?
**A.** > 100 µM (inactive)

**Q.** And the GI50 (A498)?
**A.** > 100 µM (inactive)

**Q.** And the GI50 (UO-31)?
**A.** > 100 µM (inactive)

**Q.** What about the GI50 (SN12C) of the same compound?
**A.** > 10 µM (inactive)

**Q.** What about the GI50 (SR) of the same compound?
**A.** > 100 µM (inactive)

**Q.** And the GI50 (HOP-62)?
**A.** > 100 µM (inactive)

**Q.** And the GI50 (M14)?
**A.** > 100 µM (inactive)

**Q.** What about the GI50 (SF-539) of the same compound?
**A.** > 100 µM (inactive)

**Q.** And the GI50 (OVCAR-3)?
**A.** > 100 µM (inactive)

**Q.** What does the source list for `CN(C)CCNC(=O)c1cccc2c(NC(CCCNC(=N)N)C(=O)O)c3ccccc3[n+](C)c12` (stereo unspecified)?
**A.** GI50 (SF-268): 29 µM (inactive); GI50 (Hs-578T): > 100 µM (inactive); GI50 (IGROV-1): 59 µM (inactive); GI50 (MDA-MB-231): 37.1 µM (inactive); GI50 (LOX IMVI): 66.1 µM (inactive); GI50 (NCI-H226): 39.5 µM (inactive); GI50 (KM12): > 100 µM (inactive); GI50 (SNB-19): > 100 µM (inactive); GI50 (786-0): 71 µM (inactive); GI50 (A549): 78.5 µM (inactive); GI50 (MCF7): 45.4 µM (inactive); GI50 (UACC-62): > 100 µM (inactive); GI50 (SK-MEL-28): > 100 µM (inactive); GI50 (MDA-N): 61.5 µM (inactive); GI50 (SK-MEL-2): > 100 µM (inactive); GI50 (SNB-75): 28.1 µM (inactive); GI50 (K562): > 100 µM (inactive); GI50 (DU-145): 70.1 µM (inactive); GI50 (MOLT-4): 47.8 µM (inactive); GI50 (NCI-H460): 49.3 µM (inactive); GI50 (PC-3): 79.8 µM (inactive); GI50 (ACHN): 68.7 µM (inactive); GI50 (RPMI-8226): > 100 µM (inactive); GI50 (Malme-3M): 86.7 µM (inactive); GI50 (HCT-15): > 100 µM; GI50 (UACC-257): > 100 µM (inactive); GI50 (BT-549): > 100 µM (inactive); GI50 (T47D): 80.9 µM (inactive); GI50 (OVCAR-4): > 100 µM (inactive); GI50 (MDA-MB-435): > 100 µM (inactive); GI50 (TK-10): > 100 µM (inactive); GI50 (OVCAR-5): > 100 µM (inactive); GI50 (NCI-H23): > 100 µM (inactive); GI50 (HT-29): > 100 µM (inactive); GI50 (U-251): > 100 µM (inactive); GI50 (NCI/ADR-RES): 27.7 µM (inactive); GI50 (SK-OV-3): > 100 µM (inactive); GI50 (SK-MEL-5): 40.1 µM (inactive); GI50 (COLO 205): 38.9 µM (inactive); GI50 (OVCAR-8): 92 µM (inactive); GI50 (SF-295): > 100 µM (inactive); GI50 (EKVX): > 100 µM (inactive); GI50 (SW-620): 53.5 µM (inactive); GI50 (HCT-116): 45.6 µM (inactive); GI50 (HCC 2998): 69.5 µM (inactive); GI50 (A498): > 100 µM (inactive); GI50 (UO-31): > 100 µM (inactive); GI50 (SN12C): 32.4 µM (inactive); GI50 (SR): > 100 µM (inactive); GI50 (HOP-62): 68.1 µM (inactive); GI50 (M14): > 100 µM (inactive); GI50 (SF-539): 83.8 µM (inactive); GI50 (OVCAR-3): > 100 µM (inactive)

From ChEMBL document CHEMBL1201862, “PubChem BioAssay data set” (2004)
